Results from ChEMBL document CHEMBL1152529, “Synthesis, antifungal, haemolytic and cytotoxic activities of a series of bis(alkylpyridinium)alkanes” (Bioorg Med Chem, 2009).
The source made the active and inactive calls. The calls are words filed in the database; no cut-off is given here.

Columns and labels:
[1] = system: Lomentospora prolificans; assay: Antifungal activity against Scedosporium prolificans 05-203060 after 48 to 72 hrs by broth microdilution method; assay type: functional
[2] = system: Curvularia australiensis; assay: Antifungal activity against Bipolaris australiensis 03-201798 after 48 to 72 hrs by broth microdilution method; assay type: functional
[3] = system: Scedosporium apiospermum; assay: Antifungal activity against Scedosporium apiospermum 05-203100 after 48 to 72 hrs by broth microdilution method; assay type: functional
[4] = system: Aspergillus terreus; assay: Antifungal activity against Aspergillus terreus 05-202844 after 48 to 72 hrs by broth microdilution method; assay type: functional
[5] = system: Candida parapsilosis; assay: Antifungal activity against Candida parapsilosis ATCC 22019 after 48 to 72 hrs by broth microdilution method; assay type: functional; details: Lodderomyces parapsilosis
[6] = system: Nakaseomyces glabratus; assay: Antifungal activity against Candida glabrata 04-202345 after 48 to 72 hrs by broth microdilution method; assay type: functional
[7] = system: Cryptococcus neoformans; assay: Antifungal activity against Cryptococcus neoformans ATCC 90112 after 48 to 72 hrs by broth microdilution method; assay type: functional
[8] = system: MDCK; assay: Cytotoxicity against MDCK cells after 3 hrs by MTS assay; assay type: cell-based; details: Canis lupus familiaris
[9] = system: Rhizopus arrhizus; assay: Antifungal activity against Rhizopus oryzae 05-203111 after 48 to 72 hrs by broth microdilution method; assay type: functional
[10] = biological target: Phospholipase A2, major isoenzyme (Sus scrofa, UniProt P00592); assay: Inhibition of porcine pancreatic PLA2 after 1 hr by radiometric method
[11] = Inhibition of phospholipid fatty acyl chain hydrolysis activity of Cryptococcus neoformans var. grubii H99 PLB assessed as formation of radiolabeled free fatty acid at pH 4 by radiometric assay
[12] = system: Cryptococcus neoformans var. grubii H99; assay: Inhibition of lysophospholipid fatty acyl chain hydrolysis activity of Cryptococcus neoformans var. grubii H99 PLB assessed as formation of radiolabeled free fatty acid at 0.25 to 250 uM at pH 4 by radiometric assay
[13] = system: A549; assay: Cytotoxicity against human A549 cells after 3 hrs by MTS assay; assay type: cell-based; details: A549, 3 h
[14] = system: Cryptococcus neoformans var. grubii H99; assay: Inhibition of lysophospholipase acyltransferase activity of Cryptococcus neoformans var. grubii H99 PLB assessed as formation of radiolabeled dipalmitoyl phosphatidylcholine at 0.25 to 250 uM at pH 4 by radiometric assay
[15] = system: Exophiala spinifera; assay: Antifungal activity against Exophiala spinifera 03-200803 after 48 to 72 hrs by broth microdilution method; assay type: functional
[16] = system: Candida albicans; assay: Antifungal activity against Candida albicans ATCC 10231 after 48 to 72 hrs by broth microdilution method; assay type: functional
[17] = system: Pichia kudriavzevii; assay: Antifungal activity against Candida krusei ATCC 6258 after 48 to 72 hrs by broth microdilution method; assay type: functional
[18] = system: Aspergillus flavus; assay: Antifungal activity against Aspergillus flavus ATCC 204304 after 48 to 72 hrs by broth microdilution method; assay type: functional
[19] = system: Aspergillus fumigatus; assay: Antifungal activity against Aspergillus fumigatus ATCC 204305 after 48 to 72 hrs by broth microdilution method; assay type: functional
[20] = Cytotoxicity against human erythrocytes assessed as hemolysis after 1 hr; assay type: cell-based, Erythrocyte
[21] = Solubility at 50 uM; assay type: physicochemical
[22] = Selectivity index, ratio of IC50 for human A549 cells to MIC for Cryptococcus neoformans ATCC 90112; assay type: functional
[23] = Selectivity index, ratio of HC50 for human erythrocytes to MIC for Cryptococcus neoformans ATCC 90112; assay type: functional
[24] = Selectivity index, ratio of HC50 for human erythrocytes to MIC for Candida albicans ATCC 10231; assay type: functional
[25] = Selectivity index, ratio of IC50 for MDCK cells to MIC for Candida albicans ATCC 10231; assay type: functional
[26] = Selectivity index, ratio of IC50 for human A549 cells to MIC for Candida albicans ATCC 10231; assay type: functional
[27] = Selectivity index, ratio of IC50 for MDCK cells to MIC for Cryptococcus neoformans ATCC 90112; assay type: functional
[28] = Cryptococcus neoformans, ATCC 90112
[29] = Cryptococcus neoformans, ATCC 90112, read-out: MIC
[30] = Candida albicans, ATCC 10231, read-out: MIC

Chain of Phospholipase A2, major isoenzyme (P00592 whole entry): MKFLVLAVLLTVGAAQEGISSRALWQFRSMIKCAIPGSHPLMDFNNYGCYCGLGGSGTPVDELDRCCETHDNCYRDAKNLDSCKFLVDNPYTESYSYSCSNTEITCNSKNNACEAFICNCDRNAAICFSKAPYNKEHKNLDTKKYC

Row | Structure (SMILES) | MFC [1] | MIC [1] | MFC [2] | MIC [2] | MFC [3] | MIC [3] | MFC [4] | MIC [4] | MFC [5] | MIC [5] | MFC [6] | MIC [6] | MFC [7, 28] | MIC [7, 29] | IC50 [8] | MFC [9] | MIC [9] | IC50 [10] | IC50 [11] | IC50 [13] | further results
1 | CCCCCc1cc[n+](CCCCCCCCCCCC[n+]2ccc(CCCCC)c(CCCCC)c2)cc1CCCCC | 5.5 µM | 2.7 µM | 2.7 µM | 2.7 µM | 5.5 µM | 5.5 µM | 2.7 µM | 1.4 µM | 2.7 µM | 2.7 µM | 1.4 µM | 1.4 µM | 1.4 µM | 1.4 µM | 70 µM | 2.7 µM | 2.7 µM | 52 µM | 4 µM | 45 µM | Activity [12]: inactive; Activity [14]: inactive; MFC [15]: 2.7 µM; MIC [15]: 2.7 µM; MFC ([16]; Candida albicans, ATCC 10231): 2.7 µM; MIC [16, 30]: 2.7 µM; MFC [17]: 2.7 µM; MIC [17]: 2.7 µM; MFC [18]: 22 µM; MIC [18]: 11 µM; MFC [19]: 22 µM; MIC [19]: 11 µM; HC50 at 1 h [20]: 17.5 µM
2 | CN1CCC[C@H]1c1ccc[n+](CCCCCCCCCCCC[n+]2cccc([C@@H]3CCCN3C)c2)c1.[Br-].[Br-] |  |  |  |  |  |  |  |  |  |  |  |  |  | > 50 µM |  |  |  |  |  |  | solubility [21]: Insoluble; MIC [16, 30]: > 50 µM
3 | CCCCCc1cc[n+](CCCCCCCCCCCC[n+]2ccc(CCCCC)cc2)cc1.[Cl-].[Cl-] | 5.5 µM | 2.7 µM | 11 µM | 11 µM | 5.5 µM | 5.5 µM | 22 µM | 11 µM | 2.7 µM | 1.4 µM | 2.7 µM | 2.7 µM | 1.4 µM |  | 150 µM | 11 µM | 2.7 µM | > 250 µM | 104 µM | 115 µM | Selectivity Index [22]: >40; MIC [7]: 1.4 µM; Selectivity Index [23]: >100; MFC [15]: 0.7 µM; MIC [15]: 0.7 µM; MIC [16]: 2.7 µM; MFC ([16]; Candida albicans, ATCC 10231): 2.7 µM; Selectivity Index [24]: >100; Selectivity Index [25]: >40; MFC [17]: 22 µM; MIC [17]: 11 µM; Selectivity Index [26]: >40; MFC [18]: 87.5 µM; MIC [18]: 44 µM; MFC [19]: 87.5 µM; MIC [19]: 87.5 µM; HC50 at 1 h [20]: > 350 µM; Selectivity Index [27]: >40
